According to patent publication US5665769A, “Pharmaceutical composition for preventing and treating retinal diseases” (Senju Pharmaceuticals Co., Ltd., priority 1993, dated 1997):

Key:
[1] = test system: bovine retinal homogenate; assay: Ferrous chloride-induced peroxidation of bovine retinal homogenate in vitro, TBA value (Experiment 1 (A)); assay type: biochemical; conditions: 10^-4 M
Procedure: (A) In vitro experiment using a bovine retinal homogenate:
Effects of 2-O-octadecylascorbic acid on the peroxidation induced by adding ferrous chloride to a bovine retinal homogenate were examined.
(1) Retinae were removed from bovine eyeballs (1/2 eye). Physiological saline was added to the retinae to prepare bovine retinal homogenates.
(2) Ferrous chloride (0.5 mM, dissolved in distilled water) was added to each of the retinal homogenates obtained in the above. Further, 2-O-octadecylascorbic acid and α-tocopherol were added to the resulting homogenates to final concentrations of the reaction mixtures of 10^-4 M, respectively. Further, distilled water was added to each of the homogenates to adjust a total volume to 1 ml. 2-O-octadecylascorbic acid and α-tocopherol were dissolved and diluted with ethanol. Thus, the final concentrations of ethanol in all of the reaction mixtures were adjusted to 1%. Then, the mixtures were subjected to reaction at 37° C. for 1 hour.
(3) 0.35% thiobarbituric acid (hereinafter referred to as TBA) reagent (50% aqueous acetic acid solution)(1 ml) was added to the reaction mixtures or standard solutions of the retinal homogenates obtained in the above (2). The mixtures were subjected to reaction in boiling water at 100° C. for 1 hour. After water cooling, n-butanol (2 ml) was added, and the mixtures were shaken for 5 minutes and centrifuged at 3000 rpm for 10 minutes. Fluorescence intensities (excitation wave length: 515 nm, emission wave length: 553 nm) were determined for the n-butanol layer. Proteins were determined using Bio-Rad Protein Assay Kit (trade name).

[2] = test system: retina (ERG in rats); assay: ERG changes induced by intravitreous injection of ferrous sulfate in rats (Experiment 1 (B-2)); assay type: in vivo, SD rats; conditions: 30 mg/kg oral
From the text: FIG. 1 is a graph showing the a-wave amplitude of ERG in rats after intravitreous injection of ferrous ion in Experiment 1 (B-2). The abscissa indicates time (hour) and the ordinate indicates percentage (%) relative to the initial amplitude. In FIGS. 1 to 5, the compound (I) is 2-O-octadecylascorbic acid. FIG. 2 is a graph showing the b-wave latency of ERG in rats after intravitreous injection of ferrous ion in Experiment 1 (B-2). The abscissa indicates time (hour) and the ordinate indicates percentage (%) relative to the initial amplitude. FIG. 3 is a graph showing the b-wave amplitude of ERG in rats after intravitreous injection of ferrous ion in Experiment 1 (B-2). The abscissa indicates time (hour) and the ordinate indicates percentage (%) relative to the initial amplitude. (B-2) Evaluation by Electroretinogram (hereinafter referred to as ERG) determination Effects of oral administration of 2-O-octadecylascorbic acid (30 mg/kg) on the changes of ERG induced by intravitreous injection of ferrous sulfate in rats were examined. Twelve SD rats (7 weeks old) were fasted from the previous day. A 7.5 mM ferrous sulfate (5 μl) solution was injected intravitreously into each of the left eyes. A 1.5% suspension of 2-O-octadecylascorbic acid (30 mg/kg) or a 5% solution of gum arabic (control) was firstly administered orally 2 hours before the ferrous ion injection, and thereafter administered three times every 3 hours and then three times every 5 hours. ERG was determined 6, 9 and 24 hours after the ferrous ion injection and evaluated for the latency and amplitude of a-wave and b-wave.

[3] = test system: retina (ERG in rats); assay: ERG in rats after light exposure for 20 hours (Experiment 2 (B-2), Method 2); assay type: in vivo; conditions: 5.0% suspension, light 20 hours
Procedure: FIG. 5 is a graph showing the a-wave latency of ERG in rats after light exposure for 20 hours in Experiment 2 (B-2)(Method 2). The abscissa indicates time (day) after light exposure and the ordinate indicates a-wave latency (msec).
(B-2) Evaluation of ERG determination
Rats were subjected to dark adaptation for 12 hours and irradiated with light for 20 successive hours under the same conditions as those of (Method-1). After subjecting them to dark adaptation for 2 hours, ERG was determined. A 5.0% 2-O-octadecylascorbic acid suspension or 5.0% gum arabic solution (control) was orally administered once a day (100 mg/kg/day) from 7 days before the light exposure and twice a day (200 mg/kg/day) only on the day of the light exposure.

[4] = 9 hours after ferrous ion injection, compared to control

CCCCCCCCCCCCCCCCCCOC1=C(O)[C@@H]([C@@H](O)CO)OC1=O [2-O-octadecylascorbic acid]
inhibitory effect on the peroxidation of the retinal homogenate ([1]; compared with α-tocopherol): more excellent inhibitory effect on the peroxidation of the retinal homogenate than that in the presence of α-tocopherol | Retina: TBA value ([1]; 0.5 mM ferrous chloride, 37° C., 1 hour, mean ± S.D., n=3, p < 0.001 vs control): 0.61 ± 0.04 nM malondialdehyde/mg protein | Inhibitory ratio ([1]; ferrous chloride control = 0, blank = 100, 60 min): 94.9% | decrease of the amplitude of a-wave and b-wave [2, 4]: more marked tendency to inhibit the decrease of the amplitude of a-wave and b-wave | delay of the b-wave latency [2, 4]: the delay of the b-wave latency was significantly inhibited | recovery of amplitude ([2]; 24 hours after ferrous ion injection, both groups): The amplitude was not recovered even in the determination after 24 hours | delay of the latency and decrease of the amplitude of a-wave and b-wave ([2]; from 6 hours after ferrous ion injection, both groups): strongly observed in both groups | delay of the a-wave latency ([3]; oral 100 mg/kg/day from 7 days before, 200 mg/kg/day on day of light exposure): significantly inhibited the delay of the a-wave latency | amplitude of a-wave and b-wave ([3]; both groups): decreased in both groups
